Measurements as given in patent US7825270B2, “Inositolphospholipids and analogues: phosphatidylinositol products and processes” (Nutrimed Biotech, priority 2005, dated 2010).

Experiments:
[1] = test system: epithelial cell proliferation; details: cited from earlier work
[2] = solubility in organic solvents; assay type: physicochemical; details: alcohol, acetone, ethyl acetate or methanol
HDL-C levels = details: administration of PI, humans; cited from earlier work

Substance: D-myo-inositol 4-(hexadecyloxy)-3(S)methoxy-butane-phosphonate
- inhibition of epithelial cell proliferation [1]: inhibit epithelial cell proliferation

Substance: Soy PI-2,3,4,5,6-penta-O-tetrahydropyranyl ether
- solubility in solvents [2]: dissolved easily

Substance: phosphatidylinositol [PI]
- effect on HDL-C levels (HDL-C levels): raises HDL-C levels
